This is an account of results in patent US20100029542A1, “PROTEIN STERILISATION BY RADIATION AND ADDITION OF A STABILISING COMPOSITION” (priority 2006, published 2010).

The conditions of data set [1]: cited from earlier work.
A further data set has as its target T1, glucose oxidase (Aspergillus niger, UniProt P13006).
T1 construct: purchased Biocatalysts G575P
Nature of the data set: Activity recovery of glucose oxidase in dry formulations following gamma irradiation. The data set is classed as physicochemical. The settings on record: glucose oxidase 350 μg mL^−1 prior to drying, dry, 25-40 kGy. The method, then:
In each example, an aqueous solution of a protein was prepared with selected additives in an Eppendorf tube or in a glass vial. Water was removed from the formulation by drying under a stream of nitrogen at 30° C. and subsequent incubation at atmospheric pressure in the presence of a dessicant. The Eppendorf tubes or the glass vials were sealed and delivered to an industrial sterilisation service for gamma irradiation, with a dose range typical for sterile medical products. The gamma-irradiated samples were reconstituted on their return and analysed for protein activity or structural integrity. The results were compared with those achieved using control (i.e. non-irradiated) samples.
The dry samples (approx. 20 μg in an Eppendorf tube) were gamma-irradiated by an industry-standard commercial sterilising service provided by Isotron PLC (Swindon, Wilts, UK), using a Cobalt 60 gamma source at ambient temperature. The radiation dose was in the range of 25-40 kGy.
The original solutions (i.e. solutions prior to drying) contained 350 μg mL^−1 of glucose oxidase and typically the total of 100 mM of protective compounds (i.e. 100 mM in case of a single compound, 50 mM+50 mM in case of two compounds, 33.3 mM+33.3 mM+33.3 mM in the case of three compounds etc.). The solutions were dried and gamma irradiated. Following the gamma irradiation, the samples, both pre- and post-gamma irradiated, were assayed for glucose oxidase activity. This was performed according to the following procedure:
Water was added to the sample to achieve 350 μg mL^−1 of glucose oxidase. 50 μL of the solution was added to 50 mL of deionised water. The following solutions were then added: • 10 mL of reagent mix (5 parts of 0.1 M sodium phosphate, pH 6+4 parts 2% w/w starch+1 part of 1 mg/mL lactoperoxidase enzyme); • 5 mL of 100 mM potassium iodide; and • 5 mL of 20% w/w glucose solution.
These were mixed together quickly. Time=0 was counted from the addition of the glucose. After 5 min, 1 ml of 5 M aq. hydrochloric acid was added to stop the reaction. The absorbance was then read at 630 nm using a Unicam UV-visible spectrophotometer (Type: Helios gamma). If the colour intensity was too great to allow an accurate reading, the sample was diluted with a defined volume of deionised water to bring the colour back on scale. The results were expressed as percentage recovery, by reference to the absorbance measured in the pre-gamma irradiation samples.

Like-named read-outs stand apart in the source and are kept apart here.

T1 sequence (P13006 17-605): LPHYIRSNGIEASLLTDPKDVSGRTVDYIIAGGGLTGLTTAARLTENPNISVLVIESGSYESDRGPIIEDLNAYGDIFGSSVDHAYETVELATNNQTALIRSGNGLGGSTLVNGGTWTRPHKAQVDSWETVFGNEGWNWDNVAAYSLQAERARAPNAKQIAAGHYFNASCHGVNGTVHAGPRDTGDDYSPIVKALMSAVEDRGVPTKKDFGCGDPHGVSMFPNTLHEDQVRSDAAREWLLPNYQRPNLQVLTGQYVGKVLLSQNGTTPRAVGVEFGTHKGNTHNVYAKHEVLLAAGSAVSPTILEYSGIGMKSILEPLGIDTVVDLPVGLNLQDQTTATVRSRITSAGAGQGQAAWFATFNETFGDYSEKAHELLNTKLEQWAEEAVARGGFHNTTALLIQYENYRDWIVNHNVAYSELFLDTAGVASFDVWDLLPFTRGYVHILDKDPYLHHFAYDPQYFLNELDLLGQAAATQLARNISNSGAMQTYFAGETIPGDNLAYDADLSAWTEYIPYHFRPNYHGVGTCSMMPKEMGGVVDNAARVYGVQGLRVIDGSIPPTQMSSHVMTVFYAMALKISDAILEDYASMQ

For `CSCC[C@H](N)C(=O)O` [Methionine], the “Rate of reaction with singlet oxygen” value in data set [1] (Table 5), in data set [1] (Table 7) and in data set [1] (Table 8) was 1.3e+07 M⁻¹ s⁻¹ in each case. Moreover, the “Enzyme activity remaining after gamma-irradiation” value on glucose oxidase (Table 3, prior-art antioxidants, ambient temperature, vs non-irradiated) worked out at 61.3%; at glucose oxidase (Table 5, singlet oxygen scavengers, ambient temperature), 61.3%; on glucose oxidase (Table 9, superoxide scavengers) it was 61.3%.
